Source: patent publication US20220251116A1, “ALKYLBORONIC ACIDS AS ARGINASE INHIBITORS” (Guangdong Newopp Biopharmaceuticals Co., Ltd., priority 2019, published 2022)
Counter-ions that a name gives are not always drawn.

Legend:
[1] = molecular target: recombinant human arginase 1 (Homo sapiens, UniProt P05089); experiment: Arginase inhibitory activity test, enzymatic assay based on urea measurement (Arg 1);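 note: enzyme incubated with L-arginine substrate and compound at 37 °C for 120 min, urea product detected colorimetrically by absorbance at 450 nm, background from wells lacking enzyme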
Method: (§1) An enzymatic assay with recombinant human arginases 1 or 2 was used to measure inhibitory activity of the compounds. The assay is based on urea measurement, which is a product of L-arginine enzymatic degradation.
(§2) Briefly, arginase and the substrate solution containing L-arginine were incubated in the absence or presence of varying concentrations of compounds at 37° C. for 120 min. For the background correction, only the substrate solution was added without arginase. The urea detection reagent from QuantiChrome™ Urea assay kit (BioAssay Systems, CA) was added to develop the color product. After 60 min at room temperature, the absorbance was measured at 450 nm with CLARIOstar (BMG LABTECH). Urea was used as the standard.

[2] = molecular target: T1, recombinant human arginase 2 (Homo sapiens, UniProt P78540); experiment: Arginase inhibitory activity test, enzymatic assay based on urea measurement (Arg 2); format: biochemical; conditions: 37° C. for 120 min, urea detection, read-out: Arg 2 enzymatic potency
T1 sequence (P78540 23-354): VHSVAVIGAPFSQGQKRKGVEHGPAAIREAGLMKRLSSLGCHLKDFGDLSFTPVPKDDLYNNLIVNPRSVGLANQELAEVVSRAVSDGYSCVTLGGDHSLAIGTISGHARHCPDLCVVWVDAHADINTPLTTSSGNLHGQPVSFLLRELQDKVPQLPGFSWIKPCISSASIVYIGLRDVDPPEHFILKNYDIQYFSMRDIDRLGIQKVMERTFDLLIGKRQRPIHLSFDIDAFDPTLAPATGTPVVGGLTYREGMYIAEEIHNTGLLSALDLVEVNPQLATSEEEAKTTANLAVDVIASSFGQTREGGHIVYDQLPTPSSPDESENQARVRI
Text: Urea was used as the standard.

[3] = molecular target: T2, recombinant human arginase 1 (Homo sapiens, UniProt P05089); experiment: Arginase inhibitory activity test, enzymatic assay based on urea measurement (Arg 1); remark: listed apart in the source;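 note: enzyme incubated with L-arginine substrate and compound at 37 °C for 120 min, urea product detected colorimetrically by absorbance at 450 nm, background from wells lacking enzyme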
T2 sequence (P05089 1-322): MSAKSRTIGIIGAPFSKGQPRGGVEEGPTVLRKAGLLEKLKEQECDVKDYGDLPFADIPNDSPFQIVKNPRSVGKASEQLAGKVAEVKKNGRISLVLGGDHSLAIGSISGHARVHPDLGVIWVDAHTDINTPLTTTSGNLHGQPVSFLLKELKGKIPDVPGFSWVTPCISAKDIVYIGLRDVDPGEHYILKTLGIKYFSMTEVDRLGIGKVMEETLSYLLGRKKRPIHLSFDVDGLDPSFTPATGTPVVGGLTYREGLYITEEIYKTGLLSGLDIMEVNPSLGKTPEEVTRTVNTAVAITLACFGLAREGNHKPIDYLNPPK
Method: as §1, §2

Row | SMILES | IC50 [1] [nM] | IC50 [2] [nM] | IC50 [3] [nM]
1 | CN(C[C@H](N)C(F)F)S(=O)(=O)N1C[C@H](CCCB(O)O)[C@](N)(C(=O)O)C1 (racemic) | 100 to 1000 |  | 
2 | N[C@@H](CNS(=O)(=O)N1C[C@H](CCCB(O)O)[C@](N)(C(=O)O)C1)C(F)F (racemic) | 100 to 1000 |  | 
3 | N[C@@]1(C(=O)O)CN(S(N)(=O)=O)C[C@@H]1CCCB(O)O (racemic) [Example 1, (rac)trans-3-amino-4-(3-boronopropyl)-1-sulfamoylpyrrolidine-3-carboxylic acid, (1:1) 2,2,2-trifluoroacetic acid salt] |  | 100 to 1000 | < 100
4 | CC(C)(CN)NS(=O)(=O)N1C[C@H](CCCB(O)O)[C@](N)(C(=O)O)C1 (racemic) [Example 26, (rac)-trans-3-amino-1-(N-(1-amino-2-methylpropan-2-yl)sulfamoyl)-4-(3-boronopropyl)pyrrolidine-3-carboxylic acid, (1:2) 2,2,2-trifluoroacetic acid salt] |  | < 100 | < 100
5 | N[C@@]1(C(=O)O)CN(S(=O)(=O)Nc2ccccn2)C[C@@H]1CCCB(O)O (racemic) [Example 4, (rac)trans-3-amino-4-(3-boronopropyl)-1-(N-(pyridin-2-yl)sulfamoyl)pyrrolidine-3-carboxylic acid compound with 2,2,2-trifluoroacetic acid (1:2)] |  | 100 to 1000 | 100 to 1000
